Data published in article PMC6657890 (PLoS ONE, 2019).
pKd: −log10 of the molar value.

Biological target: T1, CV-IIL (Chromobacterium violaceum, UniProt Q7NX84)
T1 construct: gene CV_1744
Format: binding

T1 sequence (Q7NX84 2-114 limits assumed): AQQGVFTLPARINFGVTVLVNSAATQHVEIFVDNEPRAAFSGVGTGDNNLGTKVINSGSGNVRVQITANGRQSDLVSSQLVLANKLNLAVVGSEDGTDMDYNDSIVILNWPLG

OC[C@H]1OC(O)[C@@H](O)[C@@H](O)[C@@H]1O (stereo partly drawn) [D-mannose]
pKd: 4.59

C[C@@H]1OC(O)[C@@H](O)[C@H](O)[C@@H]1O (stereo partly drawn) [L-fucose]
pKd: 5.09
